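1) Cells in 96-well plates. 2) Compound, 48 h, 5 concentrations. 3) Linear interpolation between surrounding doses. 4) Unreached endpoint = highest concentration. GI50 marks 50% less growth.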 Calls of active or inactive are those of the source. No stated cut-off is given here; in the data, active = GI50 up to about 1.1 µM and inactive = higher.
Tests used:
Assay in all cases: inhibition of tumour cell growth, NCI panel, 48 h
EKVX = tested on: EKVX
Malme-3M = tested on: Malme-3M
HT-29 = tested on: HT-29
OVCAR-3 = tested on: OVCAR-3
UACC-62 = tested on: UACC-62
NCI-H23 = tested on: NCI-H23
TK-10 = tested on: TK-10
SK-MEL-5 = tested on: SK-MEL-5
HCT-116 = tested on: HCT-116
SK-OV-3 = tested on: SK-OV-3
OVCAR-5 = tested on: OVCAR-5
MOLT-4 = tested on: MOLT-4
MDA-MB-435 = tested on: MDA-MB-435
NCI-H226 = tested on: NCI-H226
KM12 = tested on: KM12
SK-MEL-28 = tested on: SK-MEL-28
SNB-75 = tested on: SNB-75
HOP-62 = tested on: HOP-62
UO-31 = tested on: UO-31
SF-539 = tested on: SF-539

SMILES	GI50 (EKVX)	GI50 (Malme-3M)	GI50 (HT-29)	GI50 (OVCAR-3)	GI50 (UACC-62)	GI50 (NCI-H23)	GI50 (TK-10)	GI50 (SK-MEL-5)	GI50 (HCT-116)	GI50 (SK-OV-3)	GI50 (OVCAR-5)	GI50 (MOLT-4)	GI50 (MDA-MB-435)	GI50 (NCI-H226)	GI50 (KM12)	GI50 (SK-MEL-28)	GI50 (SNB-75)	GI50 (HOP-62)	GI50 (UO-31)	GI50 (SF-539)
CC(C)(C)c1nc2c(o1)/C(=N\c1ccc(F)cc1)c1ccccc1C2=O	23.7 µM (inactive)	1.97 µM (inactive)	17.6 µM (inactive)	1.06 µM (active)	2.55 µM (inactive)	2.26 µM (inactive)	35.7 µM (inactive)	1.7 µM (inactive)	5.12 µM (inactive)	22.1 µM (inactive)	14.6 µM (inactive)	> 100 µM (inactive)	2.05 µM (inactive)	16.9 µM (inactive)	7.78 µM (inactive)	10.9 µM (inactive)	6.79 µM (inactive)	15.9 µM (inactive)	4.59 µM (inactive)	4.6 µM (inactive)
CC[C@@]12CCC(=S)N(CCSc3ccccc3)[C@@H]1c1c(n(S(=O)(=O)c3ccc(OC)cc3)c3ccccc13)CC2	> 100 µM (inactive)	> 100 µM (inactive)	> 100 µM (inactive)	> 100 µM (inactive)	> 100 µM (inactive)	> 100 µM (inactive)	52 µM (inactive)	> 100 µM (inactive)	> 100 µM (inactive)	> 100 µM (inactive)	> 100 µM (inactive)	> 100 µM (inactive)	> 100 µM (inactive)	68.1 µM (inactive)	> 100 µM (inactive)	> 100 µM (inactive)	46.3 µM (inactive)	> 100 µM (inactive)	> 100 µM (inactive)	88.1 µM (inactive)
CC[C@@H]1CC[C@@H]2[C@H](CC[C@]3(C)[C@@H](OC(C)=O)CC[C@@H]23)[C@H]1COC(C)=O	31.6 µM (inactive)	18.4 µM (inactive)	18.2 µM (inactive)	17.4 µM (inactive)	18.1 µM (inactive)	27.2 µM (inactive)	> 100 µM (inactive)	18.3 µM (inactive)	16.5 µM (inactive)	35.2 µM (inactive)	20.1 µM (inactive)	16 µM (inactive)	22.5 µM (inactive)	23.1 µM (inactive)	24.3 µM (inactive)	30.8 µM (inactive)	40.6 µM (inactive)	30.4 µM (inactive)	> 100 µM (inactive)	24.4 µM (inactive)
NC(CO)C(=O)NCC(=O)O (stereo not given)	> 100 µM (inactive)	> 100 µM (inactive)	> 100 µM (inactive)	> 100 µM (inactive)	> 100 µM (inactive)	> 100 µM (inactive)	> 100 µM (inactive)	> 100 µM (inactive)	> 100 µM (inactive)	> 100 µM (inactive)	> 100 µM (inactive)	> 100 µM (inactive)	> 100 µM (inactive)	> 100 µM (inactive)	> 100 µM (inactive)	> 100 µM (inactive)	> 100 µM (inactive)	> 100 µM (inactive)	> 100 µM (inactive)	> 100 µM (inactive)
CCOC(=O)C(O)(NC(C)=O)C(F)(F)F (stereo not given)	> 100 µM (inactive)	> 100 µM (inactive)	> 100 µM (inactive)	> 100 µM (inactive)	> 100 µM (inactive)	> 100 µM (inactive)	> 100 µM (inactive)	> 100 µM (inactive)	> 100 µM (inactive)	> 100 µM (inactive)	> 100 µM (inactive)	> 100 µM (inactive)	> 100 µM (inactive)	> 100 µM (inactive)	> 100 µM (inactive)	> 100 µM (inactive)	> 100 µM (inactive)	> 100 µM (inactive)	> 100 µM (inactive)	> 100 µM (inactive)

Source: ChEMBL document CHEMBL1201862, “PubChem BioAssay data set” (2004)
